# Legend:
# Cloud point = assay type: physicochemical
# [1] = Ross-Miles foam height test (ASTM D1173); assay type: physicochemical; conditions: for Ross Miles Foam Height, millimeters, Initial: Initial (0 sec)
# Experimental: A) Ross-Miles Foam Height Test: This test is carried out according to the protocol of ASTM […].
# [2] = Pour point test (ASTM D97); assay type: physicochemical
# Experimental: C) Pour Point Test: This test is carried out according to the protocol of ASTM Test D97.
# [3] = Surface tension and critical micelle concentration (Wilhelmy plate); assay type: physicochemical; conditions: for Surface Tension: 0.1 wt % in water; for Critical Micelle Concentration: in de-ionized water
# Experimental: B) Surface Tension and Critical Micelle Concentration (CMC) Measurement. For this test the surface tension of a surfactant-water solution is measured while incrementally adding the surfactant to de-ionized water. Results are measured in terms of dyne/centimeters using a Wilhelmy plate. Results are recorded versus surfactant concentration. The Critical Micelle Concentration is the point at which an increase in surfactant concentration no longer results in a change in surface tension.
# [4] = Gel range in water at 23 C; assay type: physicochemical; set-up: key: L = Liquid; G = Gel; TL = Thick Liquid
# Experimental: One way the industry expresses a tendency of a surfactant to cause gels is a “gel range.” A typical gel range describes a percentage of samples that form gels, out of a number of samples, each having increasing surfactant concentration. […] A sample forms a gel when it is non-pourable for at least five seconds at 23° centigrade (° C.) when its container is inverted 180° so the container's open spout or mouth faces down. For many applications, a surfactant ideally has no gel range.
# D) Gel range: Ten surfactant solutions are made using 0%, 10%, 20%, 30%, 40%, 50%, 60%, 70%, 80%, 90% water. […] The test is run at 23 C.
# [5] = Cleaning of cross-linked triglycerides (Gardner scrubber, soiled vinyl tile); set-up: key to Arbitrary Gray Value: mean gray value of tile image (ImageJ); conditions: for Arbitrary Gray Value: 120 back-and-forth strokes, higher = better cleaning; for cleaning of cross-linked triglycerides (in words): aqueous solution, compared with NP-9 / APEs
# Experimental: Test panels coated with mixtures of triglycerides and cross-linked triglycerides were prepared and evaluated using the following procedure. Cobalt Naphthenate was used as a catalyst to accelerate the oxidation of vegetable oil to give a hard varnish. Carbon black is added to the varnish to enable easy visual comparison of the ability to clean the cross-linked triglyceride from the surface.
# Substrate Panels: White Vinyl Floor Tile: Tarket Corporation Azrock™ VS304-3 (6913) cut to 4¼×4¼ inch (to fit the Gardner Linear Motion Scrubber).
# Soil Formulation: 100 grams Canola Oil (Food Grade, 100%, Kroger Co. Cincinnati, Ohio 45202); 2 grams Acetylene Carbon Black (Cat #39724, Alfa Aesar; Surface area=74 sq m/g); 20 grams drying agent: Cobalt Naphthenate Solution (Aldrich Cat #54,457-4, CAS #61789-51-3) (Comes as a 6% solution in petroleum solvent); Oven: Convection oven set at 160° F.
# Scrubbing Tester: Gardco washability & Wear Tester; Linear Motion Test Equipment; Model D12-V Cat #WA-2164 (Paul N. Gardner Company, Inc. 316 N.E. First Street, Pompano, Beach, Fla. 33060.
# Sponges: “Do-It” Cellulose Sponge, 1⅝ in thick, cut to 3″×4″. Manufactured by Bloch/New England for HWI, Fort Wayne, Ind. 46801;
# Paint Brushes: Economy Chip Brush 1 Inch. www.lgsourcing.com Model #0106; Item #103407 obtained from Lowes, Inc. L. G. Sourcing, Inc. P.O. Box 1535 North Wilkseboro, N.C. 28659
# Reflectance Meter: HunterLab ColorQuest XE
# Prepare a stock solution by mixing 98 grams of canola oil (food grade) with 2.0 g acetylene-based carbon black (Cat #39724, Alfa Aesar; Surface area=74 sq m/g). Mix with a disperser at 2000 rpm for 15 min. (We used a Caframo Model BDC 3030 with a 0.50 dispersing blade).
# Add 20.0 grams Cobalt Naphthenate Solution and mix well (by hand, using a glass stir rod).
# Place 1.6 grams soil per 4×4 inch tile.
# Paint to a thin film using a clean 1-inch economy brush. Use several strokes to get to an even coating. Use a clean, dry brush for each application. (After the application, each brush can be cleaned with acetone, dried, and then re-used).
# Place in a convection oven set at 160 F for 16 hours. We place the panels in an oven at 4:00 p.m, and then remove the panels at 8:00 a.m. the next morning. Let the panels cool for 1 hour.
# Use the panels within 10 days
# Place a panel in the Gardner Scrubber
# […] (We use 5.0 grams surfactant diluted to 500 mL water).
# Prepare a sponge by rinsing several times in cold tap water. Completely squeeze out the sponge by hand.
# After each test, rinse out the sponge 15-20 times (by repeated sorption and squeezing) until there is no noticeable surfactant solution left (usually indicated by a lack of foam).
# Pour 500 mL of surfactant solution into a beaker
# Place the sponge into the beaker—allowing it to soak up as much surfactant as possible.
# Place the sponge into the Gardner Scrubber.
# Pour the remaining liquid (approx 400 mL) over the test panel in the scrubber. There should be enough liquid to just cover the test panel.
# Program the scrubber to perform 120 back-and-forth strokes (for a total of 240 linear strokes). We define each back-and-forth stroke as “1 stroke”
# Remove the panel rinse with tap water
# Clean the Gardner scrubber by rinsing with tap water.
# Clean the sponge by squeezing it out under tap water 20-30 times until clean.
# Remove excess water from the sponge by squeezing as much liquid out as possible.
# After the panel is dry, either take pictures (for visual comparison of cleaning) or measure the reflectance using the Xyy mode of a Hunter Colorimeter. Alternatively, the mean gray value can be obtained by taking a picture of the tiles and processing computer image with ImageJ™ software, which is distributed freely by the National Institute of Health (nih.gov).
# Desmondesmus subspicatus = test: Fresh water algal growth inhibition test (OECD 201); assay type: cell-based; conditions: growth rate
# Text: Organization for Economic Cooperation and Development (OECD): OECD Guidelines for the Testing of Chemicals, “Freshwater Alga and Cyanobacteria, Growth Inhibition Test”, Procedure 201, adopted 23 Mar. 2006; European Economic Community (EEC): […] OECD Guidelines for the Testing of Chemicals, “Freshwater Alga and Cyanobacteria, Growth Inhibition Test”, Procedure 201, adopted 23 Mar. 2006; European Economic Community (EEC): […]
# Daphna magna = test: 48-hour acute toxicity to Daphnia; assay type: in vivo
# Text: The study procedures and test methods were based on the recommendations of the following guidelines: […]
# Sicklepod = test: Greenhouse herbicide adjuvant efficacy with glyphosate; assay type: in vivo; conditions: adjuvant 0.25% v/v in spray, visual injury at 18 DAA
# Experimental: Efficacy of Examples 7 and 8 as adjuvants in formulated herbicides is compared to commercially available herbicide packages. Greenhouse field testing is completed. A 480 g ae/L (acid equivalent per liter) formulation of glyphosate isopropylamine with no adjuvants is added to spray vials. These aliquots are diluted to a final volume of 60 ml with tap water, and appropriate amounts of adjuvants are added to the spray solution. The Examples 7 and 8 series are tested at 0.25% v/v in the final spray solution. Treatment rates are: 200, 400, and 600 g ae/ha (“ha” means hectare) and each treatment is replicated three times. Treatments are applied with a tracksprayer. The sprayer utilizes an 8002E spray nozzle, spray pressure of 262 kPa pressure and speed of 2.2 mph to deliver 140 L/Ha. The nozzle height is 46 cm above the pots. Percent visual injury assessments are made at 18 DAA (days after application) on a scale of 0 to 100% as compared to the untreated control plants (where 0 is equal to no injury and 100 is equal to complete death of the plant). Results are shown in Table 10 as % Control of Sicklepod with Glyphosate compared to commercial herbicides.
# [6] = Formula stability with LAS, sodium citrate and water; assay type: physicochemical; set-up: key to Formula stability: S = Stable; U = Unstable
# Text: When mixed with dodecyl benzene sulfonic acid (sodium salt), and sodium citrate in water, the surfactants of the present invention show enhanced formula stability relative to conventional surfactants.
substance,measurement,setting,value
C9(PO)4(EO)5.5,cloud point,Cloud point,31.0 C
C9(BO)1(EO)5,cloud point,Cloud point,21.4 C
2EH(PO)3(EO)6.8 [Example 2],"Ross Miles Foam Height, millimeters, 5 Minutes",[1],5 millimeters
same,"Ross Miles Foam Height, millimeters, Initial",[1],115 millimeters
same,Pour Point,[2],50 ° F.
same,Surface Tension,[3],32 dyne/centimeters
same,Critical Micelle Concentration,[3],2400 ppm
same,"Gel Range, Percent Surfactant in Water at 23 C.",[4]; 10% surfactant in water,L
same,"Gel Range, Percent Surfactant in Water at 23 C.",[4]; 20% surfactant in water,L
same,"Gel Range, Percent Surfactant in Water at 23 C.",[4]; 30% surfactant in water,L
same,"Gel Range, Percent Surfactant in Water at 23 C.",[4]; 40% surfactant in water,L
same,"Gel Range, Percent Surfactant in Water at 23 C.",[4]; 50% surfactant in water,L
same,"Gel Range, Percent Surfactant in Water at 23 C.",[4]; 60% surfactant in water,L
same,"Gel Range, Percent Surfactant in Water at 23 C.",[4]; 70% surfactant in water,L
same,"Gel Range, Percent Surfactant in Water at 23 C.",[4]; 80% surfactant in water,L
same,"Gel Range, Percent Surfactant in Water at 23 C.",[4]; 90% surfactant in water,L
C8-16(PO)2.5(EO)5 [reference compound],Arbitrary Gray Value,[5]; 0.5% by weight in water,48
2EH(PO)5(EO)3 [Example 6],Fresh Water algal growth inhibition test with Desmondesmus subspicatus ErC50/0-3,Desmondesmus subspicatus,31.9 mg/L
same,48-hour Acute Toxicity to Daphna magna (EC50-50 hour),Daphna magna,33.6 µg/mL
C9(BO)1(EO)7 [Example 9],Fresh Water algal growth inhibition test with Desmondesmus subspicatus ErC50/0-3,Desmondesmus subspicatus,21 mg/L
same,cloud point,Cloud point,53.9 C
same,48-hour Acute Toxicity to Daphna magna (EC50-50 hour),Daphna magna,6.2 µg/mL
same,Arbitrary Gray Value,[5]; 1% by weight in water,121
2EH(PO)2(EO)4 [Example 1],"Ross Miles Foam Height, millimeters, 5 Minutes",[1],5 millimeters
same,"Ross Miles Foam Height, millimeters, Initial",[1],110 millimeters
same,Surface Tension,[3],35 dyne/centimeters
same,Critical Micelle Concentration,[3],3300 ppm
2EH(PO)5(EO)9 [Example 8],Fresh Water algal growth inhibition test with Desmondesmus subspicatus ErC50/0-3,Desmondesmus subspicatus,97.7 mg/L
same,48-hour Acute Toxicity to Daphna magna (EC50-50 hour),Daphna magna,>100 µg/mL
same,% Control of Sicklepod with Glyphosate,Sicklepod; 200 G/ha glyphosate,31.7%
same,% Control of Sicklepod with Glyphosate,Sicklepod; 400 G/ha glyphosate,73.3%
same,% Control of Sicklepod with Glyphosate,Sicklepod; 600 G/ha glyphosate,75.0%
same,Arbitrary Gray Value,[5]; 1% by weight in water,128
C12-14(EO)5 [reference compound],Arbitrary Gray Value,[5]; 1% by weight in water,68
C9(PO)4(EO)8 [Example 10],Fresh Water algal growth inhibition test with Desmondesmus subspicatus ErC50/0-3,Desmondesmus subspicatus,26 mg/L
same,cloud point,Cloud point,55.3 C
same,48-hour Acute Toxicity to Daphna magna (EC50-50 hour),Daphna magna,29.2 µg/mL
2EH(PO)11(EO)11 [Example 5],"Ross Miles Foam Height, millimeters, 5 Minutes",[1],15 millimeters
same,"Ross Miles Foam Height, millimeters, Initial",[1],75 millimeters
same,Pour Point,[2],36 ° F.
same,Surface Tension,[3],30 dyne/centimeters
same,Critical Micelle Concentration,[3],300 ppm
same,"Gel Range, Percent Surfactant in Water at 23 C.",[4]; 10% surfactant in water,L
same,"Gel Range, Percent Surfactant in Water at 23 C.",[4]; 20% surfactant in water,L
same,"Gel Range, Percent Surfactant in Water at 23 C.",[4]; 30% surfactant in water,L
same,"Gel Range, Percent Surfactant in Water at 23 C.",[4]; 40% surfactant in water,G
same,"Gel Range, Percent Surfactant in Water at 23 C.",[4]; 50% surfactant in water,G
same,"Gel Range, Percent Surfactant in Water at 23 C.",[4]; 60% surfactant in water,G
same,"Gel Range, Percent Surfactant in Water at 23 C.",[4]; 70% surfactant in water,G
same,"Gel Range, Percent Surfactant in Water at 23 C.",[4]; 80% surfactant in water,G
same,"Gel Range, Percent Surfactant in Water at 23 C.",[4]; 90% surfactant in water,L
same,Formula stability,[6]; 15% LAS/0% Na Cit in water,S
same,Formula stability,[6]; 15% LAS/1% Na Cit in water,S
same,Formula stability,[6]; 15% LAS/2% Na Cit in water,S
same,Formula stability,[6]; 15% LAS/4% Na Cit in water,U
same,formula stability (in words),"[6]; cleaning formulations, without hydrotrope",stable
C9(PO)4(EO)6.8,cloud point,Cloud point,43.0 C
2EH(PO)9(EO)9 [Example 4],"Ross Miles Foam Height, millimeters, 5 Minutes",[1],5 millimeters
same,"Ross Miles Foam Height, millimeters, Initial",[1],50 millimeters
same,Pour Point,[2],37 ° F.
same,Surface Tension,[3],30 dyne/centimeters
same,Critical Micelle Concentration,[3],400 ppm
same,"Gel Range, Percent Surfactant in Water at 23 C.",[4]; 10% surfactant in water,L
same,"Gel Range, Percent Surfactant in Water at 23 C.",[4]; 20% surfactant in water,L
same,"Gel Range, Percent Surfactant in Water at 23 C.",[4]; 30% surfactant in water,L
same,"Gel Range, Percent Surfactant in Water at 23 C.",[4]; 40% surfactant in water,TL
same,"Gel Range, Percent Surfactant in Water at 23 C.",[4]; 50% surfactant in water,G
same,"Gel Range, Percent Surfactant in Water at 23 C.",[4]; 60% surfactant in water,G
same,"Gel Range, Percent Surfactant in Water at 23 C.",[4]; 70% surfactant in water,G
same,"Gel Range, Percent Surfactant in Water at 23 C.",[4]; 80% surfactant in water,G
same,"Gel Range, Percent Surfactant in Water at 23 C.",[4]; 90% surfactant in water,L
C9(BO)1(EO)6,cloud point,Cloud point,38.5 C
2EH(PO)5(EO)6 [Example 7],% Control of Sicklepod with Glyphosate,Sicklepod; 200 G/ha glyphosate,66.7%
same,% Control of Sicklepod with Glyphosate,Sicklepod; 400 G/ha glyphosate,81.7%
same,% Control of Sicklepod with Glyphosate,Sicklepod; 600 G/ha glyphosate,98.3%
same,Arbitrary Gray Value,[5]; 0.5% by weight in water,106
same,Arbitrary Gray Value,[5]; 1% by weight in water,179
same,cleaning of cross-linked triglycerides (in words),[5],performs as well as NP-9
same,cleaning of cross-linked triglycerides (in words),[5]; listed as 2EH(PO)5(EO)6,performs as well and NP-9

# Source: US20110098492A1, “CLEANING COMPOSITIONS CONTAINING MID-RANGE ALKOXYLATES” (priority 2008, published 2011)
